Data reported in patent US8846653B2, “Delta-tocotrienol treatment and prevention of pancreatic cancer” (University of South Florida, priority 2006, dated 2014).

Key:
MiaPaCa-2 cells = test: MTS assay of MiaPaCa2 cultures, single 50 μM dose; assay type: cell-based, human; conditions: MiaPaCa2, 50 μM
Description: MiaPaCa-2 cells were cultured in complete DMEM media containing 10% fetal bovine serum (FBS) and 1% penicillin-streptomycin, and 1% L-glutamine. BxPc-3 pancreatic cancer cells were cultured in complete RPMI media containing 10% fetal bovine serum (FBS), and 1% penicillin-streptomycin, 1% HEPES buffer, 1% sodium pyruvate and 1% L-glutamine HPDE6-C7 cells were cultured in serum-free keratinocyte SFM media. All cells were maintained at 37° C. in a humidified incubator with 5% CO2. The cells were treated with a single 50 μM dose of vehicle (vehicle only, may be a solvent), T3 alpha (alpha tocotrienol), T3 beta (beta tocotrienol), T3 gamma (gamma tocotrienol), T3 delta (delta tocotrienol), T alpha (alpha tocopherol), T beta (beta tocopherol), TS (tocopherol succinate), GG (geranylgeraniol), SA (succinic acid). A control (no treatment) culture was grown alongside the treatments for comparison. […]

[1] = test system: human pancreatic ductal epithelial cells transformed with oncogenic K-ras (HPDE-K-ras); test: Proliferation (MTT) of K-ras transformed ductal epithelial cells; assay type: cell-based; conditions: 72 hours
Description: FIGS. 36A and B are graphs showing the effect of tocotrienols on Human Pancreatic Ductal Epithelial Kras Transformed cells (MTT). (A) Tocotrienols (10-100 μM) had no effect on the proliferation of normal immortalized human pancreatic ductal epithelial cells at 72 hours. […] Points, means; bars, SE (n=3). *p<0.001 vs. vehicle. # p<0.02 vs. vehicle
The Ras effector pathways Raf-MEK-ERK and PI3 kinase-AKT are important for cell proliferation and survival, respectively. Pancreatic cancer cell lines (MIA PaCa2, SW1990, BXPC3) and HPDE 6C7 cells were treated with 8-tocotrienol (20 μM) and cell lysates were collected and prepared at progressive time intervals as described above. Proteins from lysates were run by SDS PAGE and immunoblotted with the following antibodies: Ras, p-cRaf (ser 338), p-MEK1/2, MEK1/2, pERK 44/42, ERK 44/42 (Cell Signaling) and c-Raf (BD Transduction Laboratories). […] The MIA PaCa2 and SW1990 cells were then tested for AKT inhibition. The cells were treated with δ-tocotrienol (20 μM) for 24 and 48 hours and cell lysates were run by SDS-PAGE and immunoblotted for p-AKT and AKT (Cell Signaling). […] Taken together, the inhibition of downstream effectors of oncogenic Ras signaling by δ-tocotrienol without an effect on Ras protein levels may indicate a negative regulatory role of 8-tocotrienol on the function of oncogenic Ras. The pancreatic ductal epithelial cell proliferative inhibition by δ-tocotrienol was tested to see if it occurs through blocking aberrant signal transduction cascades. Immortalized human pancreatic ductal epithelial cells (HPDE) and human pancreatic ductal epithelial cells that were transformed by stable transfection of a mutated K-ras oncogene (HPDE-K-ras) were used to test the. effect of tocotrienols on the proliferation of HPDE and HPDE-K-ras.

| Structure (SMILES) | rel amt (relative value set to the control) (MiaPaCa-2 cells; 24 hours) | MTS assay result, run 1 (MiaPaCa-2 cells; 24 hours) | MTS assay result, run 2 (MiaPaCa-2 cells; 24 hours) | MTS assay result, run 3 (MiaPaCa-2 cells; 24 hours) | MTS assay result, run 4 (MiaPaCa-2 cells; 24 hours) | MTS assay result, run 5 (MiaPaCa-2 cells; 24 hours) | MTS assay result, run 6 (MiaPaCa-2 cells; 24 hours) | MTS assay result, run 7 (MiaPaCa-2 cells; 24 hours) | MTS assay result, run 8 (MiaPaCa-2 cells; 24 hours) | MTS assay result, run 9 (MiaPaCa-2 cells; 24 hours) | rel amt (relative value set to the control) (MiaPaCa-2 cells; 48 hours) | MTS assay result, run 1 (MiaPaCa-2 cells; 48 hours) | MTS assay result, run 2 (MiaPaCa-2 cells; 48 hours) | MTS assay result, run 3 (MiaPaCa-2 cells; 48 hours) | MTS assay result, run 4 (MiaPaCa-2 cells; 48 hours) | MTS assay result, run 5 (MiaPaCa-2 cells; 48 hours) | MTS assay result, run 6 (MiaPaCa-2 cells; 48 hours) | MTS assay result, run 7 (MiaPaCa-2 cells; 48 hours) | MTS assay result, run 8 (MiaPaCa-2 cells; 48 hours) | MTS assay result, run 9 (MiaPaCa-2 cells; 48 hours) | also measured |
| --- | --- | --- | --- | --- | --- | --- | --- | --- | --- | --- | --- | --- | --- | --- | --- | --- | --- | --- | --- | --- | --- |
| CC(C)=CCC/C(C)=C/CC/C(C)=C/CC[C@]1(C)CCc2c(C)c(O)cc(C)c2O1 [T3 beta, beta tocotrienol] | 79 | 0.17 | 0.179 | 0.184 | 0.152 | 0.172 | 0.182 | 0.179 | 0.19 | 0.176 | 61 | 0.193 | 0.137 | 0.227 | 0.223 | 0.231 | 0.272 | 0.225 | 0.27 | 0.222 | rel amt (relative value set to the control) (MiaPaCa-2 cells; 72 hours): 69; MTS assay result, run 1 (MiaPaCa-2 cells; 72 hours): 0.349; MTS assay result, run 2 (MiaPaCa-2 cells; 72 hours): 0.316; MTS assay result, run 3 (MiaPaCa-2 cells; 72 hours): 0.328; MTS assay result, run 4 (MiaPaCa-2 cells; 72 hours): 0.298; MTS assay result, run 5 (MiaPaCa-2 cells; 72 hours): 0.323; MTS assay result, run 6 (MiaPaCa-2 cells; 72 hours): 0.287; MTS assay result, run 7 (MiaPaCa-2 cells; 72 hours): 0.281; MTS assay result, run 8 (MiaPaCa-2 cells; 72 hours): 0.275; MTS assay result, run 9 (MiaPaCa-2 cells; 72 hours): 0.307; proliferation (MTT) [1]: significantly inhibited |
| CC(C)=CCC/C(C)=C/CC/C(C)=C/CC[C@]1(C)CCc2cc(O)c(C)c(C)c2O1 [T3 gamma, gamma tocotrienol] | 66 | 0.133 | 0.135 | 0.141 | 0.127 | 0.142 | 0.166 | 0.171 | 0.162 | 0.147 | 37 | 0.095 | 0.116 | 0.111 | 0.128 | 0.159 | 0.147 | 0.167 | 0.152 | 0.134 | rel amt (relative value set to the control) (MiaPaCa-2 cells; 72 hours): 177; MTS assay result, run 1 (MiaPaCa-2 cells; 72 hours): 0.776; MTS assay result, run 2 (MiaPaCa-2 cells; 72 hours): 0.744; MTS assay result, run 3 (MiaPaCa-2 cells; 72 hours): 0.876; MTS assay result, run 4 (MiaPaCa-2 cells; 72 hours): 0.734; MTS assay result, run 5 (MiaPaCa-2 cells; 72 hours): 0.812; MTS assay result, run 6 (MiaPaCa-2 cells; 72 hours): 0.817; MTS assay result, run 7 (MiaPaCa-2 cells; 72 hours): 0.773; MTS assay result, run 8 (MiaPaCa-2 cells; 72 hours): 0.759; MTS assay result, run 9 (MiaPaCa-2 cells; 72 hours): 0.786; proliferation (MTT) [1]: significantly inhibited |
